According to the NIST ThermoML archive (doi:10.1007/s10765-008-0390-4):

Test: xn = mol fraction of the nth substance listed
Conditions: 101 kPa, Liquid

c1ccccc1 [benzene] + CCCCO
mass density [kg/m3]
Conditions | 288.15 K | 293.15 K | 298.15 K | 303.15 K | 308.15 K | 313.15 K
x2 = 0 | 884.246 | 878.918 | 873.582 | 868.233 | 862.871 | 857.498
x2 = 0.0193 | 882.483 | 877.168 | 871.844 | 866.507 | 861.158 | 855.809
x2 = 0.0534 | 879.595 | 874.309 | 869.007 | 863.694 | 858.36 | 853.019
x2 = 0.1013 | 875.72 | 870.495 | 865.255 | 859.995 | 854.713 | 849.433
x2 = 0.1509 | 871.829 | 866.677 | 861.506 | 856.309 | 851.089 | 845.861
x2 = 0.2016 | 867.984 | 862.908 | 857.807 | 852.685 | 847.536 | 842.375
x2 = 0.2018 | 867.955 | 862.874 | 857.776 | 852.651 | 847.499 | 842.342
x2 = 0.25 | 864.382 | 859.372 | 854.344 | 849.285 | 844.201 | 839.11
x2 = 0.2997 | 860.741 | 855.806 | 850.849 | 845.866 | 840.854 | 835.83
x2 = 0.3532 | 856.936 | 852.081 | 847.201 | 842.294 | 837.357 | 832.4
x2 = 0.4019 | 853.504 | 848.721 | 843.914 | 839.08 | 834.214 | 829.324
x2 = 0.4525 | 850 | 845.3 | 840.574 | 835.817 | 831.029 | 826.217
x2 = 0.4998 | 846.738 | 842.111 | 837.46 | 832.778 | 828.059 | 823.32
x2 = 0.5532 | 843.129 | 838.594 | 834.03 | 829.436 | 824.804 | 820.157
x2 = 0.6004 | 839.985 | 835.529 | 831.042 | 826.525 | 821.974 | 817.402
x2 = 0.6493 | 836.693 | 832.317 | 827.91 | 823.473 | 819.001 | 814.449
x2 = 0.701 | 833.239 | 828.949 | 824.631 | 820.282 | 815.895 | 811.483
x2 = 0.7502 | 829.979 | 825.772 | 821.537 | 817.269 | 812.965 | 808.64
x2 = 0.7945 | 827.051 | 822.92 | 818.759 | 814.569 | 810.343 | 806.094
x2 = 0.8511 | 823.296 | 819.258 | 815.196 | 811.102 | 806.975 | 802.822
x2 = 0.8961 | 820.299 | 816.336 | 812.348 | 808.331 | 804.274 | 800.189
x2 = 0.951 | 816.663 | 812.791 | 808.897 | 804.977 | 801.025 | 797.051

ClC(Cl)Cl [trichloromethane] + CCCCO
mass density [kg/m3]
Conditions | 288.15 K | 293.15 K | 298.15 K | 303.15 K | 308.15 K | 313.15 K
x2 = 0 | 1498.08 | 1488.64 | 1479.15 | 1469.61 | 1460.03 | 1450.41
x2 = 0.0493 | 1458.97 | 1449.82 | 1440.63 | 1431.4 | 1422.12 | 1412.82
x2 = 0.0994 | 1420.12 | 1411.28 | 1402.39 | 1393.45 | 1384.45 | 1375.41
x2 = 0.1499 | 1381.86 | 1373.34 | 1364.77 | 1356.15 | 1347.47 | 1338.76
x2 = 0.2003 | 1344.3 | 1336.11 | 1327.86 | 1319.57 | 1311.21 | 1302.8
x2 = 0.2476 | 1309.65 | 1301.76 | 1293.82 | 1285.82 | 1277.77 | 1269.66
x2 = 0.279 | 1286.97 | 1279.28 | 1271.53 | 1263.75 | 1255.9 | 1248.02
x2 = 0.3474 | 1238.34 | 1231.07 | 1223.75 | 1216.37 | 1208.94 | 1201.48
x2 = 0.4003 | 1201.44 | 1194.48 | 1187.48 | 1180.42 | 1173.31 | 1166.16
x2 = 0.461 | 1159.74 | 1153.14 | 1146.5 | 1139.81 | 1133.06 | 1126.29
x2 = 0.4993 | 1133.81 | 1127.43 | 1121 | 1114.53 | 1108 | 1101.42
x2 = 0.5517 | 1098.6 | 1092.6 | 1086.4 | 1080.3 | 1074 | 1067.8
x2 = 0.5989 | 1067.38 | 1061.55 | 1055.69 | 1049.78 | 1043.81 | 1037.8
x2 = 0.651 | 1033.23 | 1027.7 | 1022.12 | 1016.5 | 1010.82 | 1005.11
x2 = 0.7008 | 1001.03 | 995.76 | 990.45 | 985.097 | 979.698 | 974.26
x2 = 0.7485 | 970.42 | 965.404 | 960.349 | 955.255 | 950.115 | 944.94
x2 = 0.7987 | 938.452 | 933.697 | 928.907 | 924.082 | 919.208 | 914.297
x2 = 0.8495 | 906.492 | 901.999 | 897.472 | 892.91 | 888.303 | 883.67
x2 = 0.8953 | 877.854 | 873.588 | 869.292 | 864.961 | 860.59 | 856.188
x2 = 0.9475 | 845.53 | 841.51 | 837.462 | 833.386 | 829.272 | 825.138
